From patent US20080248487A1, “MODULATION OF PROTEIN FUNCTIONALITIES” (priority 2007, published 2008)

These compounds were tested against T1, p38 MAP kinase (Homo sapiens, UniProt Q16539) (assay: P38 MAP kinase binding assay (competition with fluorescent probe SKF 86002)). Details: time-dependent if the IC50 values decrease with the reaction time (more than two-fold in four hours).
T1 construct: made in house; host or cells: E. coli
Method: Thus, the ability of a small molecule to block fluoroprobe binding provides an experimental readout of binding to the switch control pocket. […] The reaction was initiated by addition of the enzyme. […] By comparison of rfu (relative fluorescence unit) values with that of a control (in the absence of small molecule modulators), the percentage of inhibition at each concentration of the small molecules were calculated. IC50 values for the small molecule modulators were calculated from the % inhibition values obtained at a range of concentrations of the small molecule modulators using Prism. When time-dependent inhibition was assessed, the plate was read at multiple reaction times such as 0.5, 1, 2, 3, 4 and 6 hours. The IC50 values were calculated at each time point. An inhibition was assigned as time-dependent if the IC50 values decrease with the reaction time (more than two-fold in four hours).

T1 sequence (Q16539 whole entry): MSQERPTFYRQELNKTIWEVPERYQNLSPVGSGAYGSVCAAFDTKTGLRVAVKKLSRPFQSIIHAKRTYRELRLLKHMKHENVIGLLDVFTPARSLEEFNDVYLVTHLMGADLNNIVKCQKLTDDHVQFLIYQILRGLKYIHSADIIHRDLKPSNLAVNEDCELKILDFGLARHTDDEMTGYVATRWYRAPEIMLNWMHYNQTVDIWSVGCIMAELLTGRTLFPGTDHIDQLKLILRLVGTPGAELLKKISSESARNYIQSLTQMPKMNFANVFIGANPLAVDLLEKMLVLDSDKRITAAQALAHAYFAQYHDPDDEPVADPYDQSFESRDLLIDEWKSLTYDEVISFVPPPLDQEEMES

Time-dependent | SMILES
No | CC1(C(=O)O)CC2(C)CC(C)(C1)C(=O)N(Cc1cccc(-n3nc(C(C)(C)C)cc3NC(=O)Nc3ccc(Cl)cc3)c1)C2=O (stereo not shown) [Example 12]
No | CC(C)(C)c1cc(NC(=O)Nc2cccc3ccccc23)n(-c2ccc(CN)cc2)n1 [Example 45, 1-{3-tert-butyl-1-[4-(aminomethyl)phenyl]-1H-pyrazol-5-yl}-3-(naphthalen-1-yl)urea]
Yes | CC(C)(C)c1cc(NC(=O)Nc2cccc3ccccc23)n(-c2cccc(CC(=O)N3CCOCC3)c2)n1 [Example 21, 1-{3-tert-butyl-1-[3-(2-morpholino-2-oxoethyl)phenyl]-1H-pyrazol-5-yl}-3-(naphthalene-1-yl)urea]
No | CC1(C(=O)O)CC2(C)CC(C)(C1)C(=O)N(Cc1cccc(-n3nc(C(C)(C)C)cc3NC(=O)Nc3cccc4ccccc34)c1)C2=O (stereo not shown) [Example 11]
